Measured values taken from US20020091086A1, “Peptides that block viral infectivity and methods of use thereof” (priority 1999, published 2002).
Where two headings read alike, the source gives them in different places. Peptide text beside a SMILES is read from it.

How the values were obtained:
[1] = system: HIV-1; details: 100 μM, HUT78 cells; for p24 / reduction (%): Experiment 6, Day 7 HIV-1; for HIV-1 infection, result in words: summary of Experiment 6
Experimental: In experiment 6 (Table 7 and FIG. 1), approximately 200,000 HUT78 cells were infected with HIV-1 at 25 TCID50 to test the inhibitory effect of GPG-NH2, RQG-NH2, KQG-NH2, ALG-NH2, GVG-NH2, VGG-NH2, ASG-NH2, SLG-NH2, and SPT-NH2. The HUT cells were resuspended in lml of RPMI 1640 medium supplemented with 10% (v/v) heat-inactivated fetal bovine serum (FBS, GIBCO), penicillin (100 u/ml), streptomycin (100 u/ml) and Polybrene (Sigma, 2 μg/ml) with or without the presence of the different small peptides (100 μM) mentioned above. Thereafter, the HIV-1 virus was added at 25 TCID50 in a volume of 20 μl. Cells were incubated with the virus at 37° C. for one hour and, subsequently, the cells were pelleted at 170×g for seven minutes. The cells were then washed three times in RPMI medium without peptides at room temperature by cell sedimentation at 170×g for seven minutes, as above. After the final wash, the cells were resuspended in RPMI culture medium containing the peptides in 24-well plate (Costar corporation) and were kept at 37° C. in 5% CO2 with humidity. Culture supernatants were collected when medium was changed at day 4, 7, and 11 post infection and viral p24 production was monitored by using an HIV-1 p24 ELISA kit (Abbott Laboratories, North Chicago, USA).

[2] = system: HIV-1 isolate p7300 (low PI); assay: resistant HIV-1 isolates in PBMC, p24 ELISA; assay type: cell-based; details: Rito 0.1 μM, 14 days post infection
[3] = system: HIV-1 isolate p7141 (high PI); assay: resistant HIV-1 isolates in PBMC, p24 ELISA; assay type: cell-based; details: Rito 0.1 μM, 14 days post infection
[4] = system: HIV-1 SF-2 virus; assay: electron microscopy of HIV-1 particles from infected HUT78 cells; assay type: cell-based; details: 0.5μM; cells fixed day 14
Experimental: In this set of experiments, HUT78 cells were infected with HIV-1 SF-2 virus at 300TCID50 for 1 hr at 37° C. Subsequently, the infected cells were washed and pelleted 3 times, as described in Example 2. Thereafter, the cells were resuspended in RPMI culture medium supplemented with 10% FBS, antibiotics (100 u/ml) and polybrene (3.2 μg/ml). GPG-NH2 was then added into the cell cultures 3, 5 or 7 days post infection at concentration of 1 μM or 10 μM. A control sample was administered 0.5μM Ritonavir (a protease inhibitor).
The cells were cultured until day 14, at which point, the cells were fixed in 2.5% glutaraldehyde by conventional means. The fixed cells were then postfixed in 1% OSO4 and were dehydrated, embedded with epoxy resins, and the blocks were allowed to polymerize. Epon sections of virus infected cells were made approximately 60-80 nm thin in order to accommodate the width of the nucleocapsid. The sections were mounted to grids stained with 1.0% uranyl acetate and were analyzed in a Zeiss CEM 902 microscope at an accelerating voltage of 80 kV. The microscope was equipped with a spectrometer to improve image quality and a liquid nitrogen cooling trap was used to reduce beam damage. The grids having sections of control and GPG-NH2 incubated cells were examined in several blind studies.

Compound: C[C@H](N)C(=O)N[C@@H](CO)C(=O)NCC(N)=O [ASG-NH2, alanyl-seryl-glycine amide] (H-Ala-Ser-Gly-NH2)
- p24 [1]: 15000 pg/mL
- reduction (%) [1]: 25%

Compound: CC(C)[C@H](NC(=O)CN)C(=O)NCC(N)=O [GVG-NH2, glycyl-valyl-glycine amide] (H-Gly-Val-Gly-NH2)
- p24 [1]: 15000 pg/mL
- reduction (%) [1]: 25%

Compound: NCCCC[C@H](N)C(=O)N[C@@H](CCC(N)=O)C(=O)NCC(N)=O [KQG-NH2, lysyl-glutaminyl-glycine amide] (H-Lys-Gln-Gly-NH2)
- p24 [1]: 154 pg/mL
- reduction (%) [1]: ~100%
- reduction (%) ([1]; listed as KQG—NH2): 99%
- HIV-1 infection, result in words [1]: inhibited and/or prevented HIV-1 infection

Compound: N=C(N)NCCC[C@H](N)C(=O)N[C@@H](CCC(N)=O)C(=O)NCC(N)=O [RQG-NH2, arginyl-glutaminyl-glycine amide] (H-Arg-Gln-Gly-NH2)
- p24 [1]: 113 pg/mL
- reduction (%) [1]: ~100%
- reduction (%) ([1]; listed as RQG—NH2): 99%
- HIV-1 infection, result in words [1]: inhibited and/or prevented HIV-1 infection

Compound: CC(C)c1nc(CN(C)C(=O)N[C@H](C(=O)N[C@@H](Cc2ccccc2)C[C@H](O)[C@H](Cc2ccccc2)NC(=O)OCc2cncs2)C(C)C)cs1 [Ritonavir, reference compound]
- % reduction [2]: (56%)
- HIV-1 p24 [2]: 64000 pg/mL
- % reduction [3]: (14%)
- HIV-1 p24 [3]: 98000 pg/mL
- viral particle structure, electron microscopy [4]: malformed structures that did not have a discemable nucleocapsid

Compound: CC(C)C[C@H](NC(=O)[C@@H](N)CO)C(=O)NCC(N)=O [SLG-NH2, seryl-leucyl-glycine amide] (H-Ser-Leu-Gly-NH2)
- p24 [1]: 114 pg/mL
- reduction (%) [1]: ~100%
- reduction (%) ([1]; listed as SLG—NH2): 99%
- HIV-1 infection, result in words [1]: inhibited and/or prevented HIV-1 infection

Compound: C[C@@H](O)[C@H](NC(=O)[C@@H]1CCCN1C(=O)[C@@H](N)CO)C(N)=O [SPT-NH2, seryl-prolyl-threonine amide] (H-Ser-Pro-Thr-NH2)
- p24 [1]: 15000 pg/mL
- reduction (%) [1]: 25%

Compound: CC(C)[C@H](N)C(=O)NCC(=O)NCC(N)=O [VGG-NH2, valyl-glycyl-glycine amide] (H-Val-Gly-Gly-NH2)
- p24 [1]: 10000 pg/mL
- reduction (%) [1]: 50%
